Structures can show the parent of a compound that is named as a salt.
How the values were obtained:
[1] = tested on: MCF-7 breast epithelial cancer cells; assay: MT2 staining of MCF-7 cells treated with inducers of autophagy, ER stress or apoptosis; format: cell-based, human; settings: 1-5 μM MT2; Rapamycin, Thapsigargin, or TNFα and CHx; excitation 488 nm, emission 520, 600, 690 nm
Method: FIG. 9 depicts microscopy images showing fluorescence change of MT2 and reference dyes following drug treatment of MCF-7 human epithelial breast adenocarcinoma cells. MCF-7 cells were cultured for 12 hrs in standard conditions and treated with drugs to induce autophagy (Rapamycin), endoplasmic reticulum stress (Thapsigargin), apoptosis (Tumor Necrosis Factor alpha, TNFα, and Cyclohexamide, CHx), or solvent control (DMSO). Dye MT2 was excited at 488 nm, and emission was simultaneously collected at three wavelengths, 520 nm (Green), 600 nm (Red), and 690 (Far Red) nm.
The dye was excited at 488 nm, and emission was simultaneously collected at three wavelengths, 520 (Green), 600 (Red), and 690 (Far Red) nm. […] Image analysis by machine-learning algorithms trained on measurements of cellular intensity, morphology, and texture features permits to distinguish treatment-specific phenotypic states.

[2] = tested on: primary cells (lymphocytes) and cell lines (tumoral); assay: Fluorescence change of dye-stained cells after treatment with agents that induce cell death; format: cell-based; settings: for fluorescence intensity relative to MT4 and MT5 / signal-to-noise ratio relative to MT4 and MT5: low micromolar staining concentrations (e.g., 1 μM); for change in fluorescence intensity of the dye after treatment with cell-death inducing agents: staurosporine, or AZD 5991 plus A1331852, in cells sensitive to these drugs but not in chemoresistant cells
Method: FIG. 1 depicts microscopy images showing fluorescence change of MT2 and reference dyes following drug treatment of primary lymphocytes. Primary lymphocytes were cultured for 24 hrs with 1 μM Staurosporine (STS, pan-kinase inhibitor) or DMSO (solvent control). Cells were stained with Hoechst (left images), tetramethylrhodamine ethyl ester (TMRE) (middle images) and MT2 (right images). Scale bar, 20 μm.
(§1) MCF10A cells were cultured for 24 hrs prior to 72 hr dual treatment with 0.312 μM each of AZD 5991 (Bcl-XL inhibitor) and A1331852 (MCL-1 inhibitor) or DMSO (solvent control). FIG. 2A: cells were stained with Hoechst (left images), TMRE (middle images) and MT3 (right images). Scale bar, 100 μm. FIGS. 2B-E: comparison of the staining pattern of Hoechst, MT3, and TMRE in control and treated MCF10A epithelial breast cells.
(§2) FIG. 3 depicts microscopy images showing fluorescence change of 1 μM MT3 and reference dyes following drug treatment of CAMA-1 luminal-type human breast cancer cells. CAMA-1 cells were cultured for 24 hrs prior to 72 hr dual treatment with 0.312 μM each of AZD 5991 (Bcl-XL inhibitor) and A1331852 (MCL-1 inhibitor) or DMSO (solvent control). Cells were stained with Hoechst (left images), TMRE (middle images) and MT3 (right images). Scale bar, 100 μm.
(§3) FIG. 4 depicts microscopy images showing fluorescence change of MT3 and reference dyes following drug treatment of MCF-7 human epithelial breast adenocarcinoma cells. MCF-7 cells were cultured for 24 hrs prior to 72 hr dual treatment with 0.312 μM each of AZD 5991 (Bcl-XL inhibitor) and A1331852 (MCL-1 inhibitor) or DMSO (solvent control). Cells were stained with Hoechst (left images), TMRE (middle images) and MT3. Scale bar, 100 μm.
as §2, with “FIG. 5” for “FIG. 3”, “of” for “of 1 μM”, “of Zr-75-1 epithelial” for “of CAMA-1 luminal-type human”, “breast ductal carcinoma” for “breast cancer”, “cells. Zr-75-1” for “cells. CAMA-1”
as §3, with “FIG. 6” for “FIG. 4”, “of MDA-MB-231” for “of MCF-7 human”, “cells. MDA-MB-231” for “cells. MCF-7”, “and MT3 (right images).” for “and MT3.”
as §3, with “FIG. 7” for “FIG. 4”, “of MDA-MB-468” for “of MCF-7 human”, “cells. MDA-MB-468” for “cells. MCF-7”
as §2, with “FIG. 8” for “FIG. 3”, “of” for “of 1 μM”, “of T47D epithelial” for “of CAMA-1 luminal-type human”, “breast ductal carcinoma” for “breast cancer”, “cells. T47D” for “cells. CAMA-1”
(§4) These changes in fluorescence emission properties were shared by all dyes tested (MT2-MT5).

[3] = tested on: Zr-75-1 epithelial breast ductal carcinoma cells; assay: MT3 staining of drug-treated chemoresistant Zr-75-1 cells; format: cell-based; settings: 72 hr 0.312 μM each AZD 5991 and A1331852
Method: as §2, with “FIG. 5” for “FIG. 3”, “of” for “of 1 μM”, “of Zr-75-1 epithelial” for “of CAMA-1 luminal-type human”, “breast ductal carcinoma” for “breast cancer”, “cells. Zr-75-1” for “cells. CAMA-1”
as §4

[4] = tested on: MCF10A epithelial breast cells; assay: Staining of control and drug-treated MCF10A cells; format: cell-based
Method: FIGS. 2A-E depict microscopy images showing fluorescence change of 1 μM MT3 and reference dyes following drug treatment of non-tumorigenic MCF10A epithelial breast cells.
as §1, §4
In the figures, Hoechst stains DNA in the nucleus, and if the nucleus condenses that staining becomes bright (i.e., more dye per unit area). […] In FIG. 2E, the TMRE staining has almost completely disappeared in drug treated cells, whereas MT3 is staining the nuclei. […] FIGS. 7 and 8 have similar lack of staining for TMRE, FIG. 7 is similar to FIG. 4 where the staining with Hoechst and MT3 are mutually exclusive, and FIG. 8 is similar to FIG. 3 where MT3 is staining nuclei where the Hoechst has not condensed.

MCF-7 tumoral cells = assay: Staining of live MCF-7 cells with 1 μM dye (microscopy); format: cell-based, human
Method: FIGS. 14A-J depict microscopy images showing staining of MCF7 cells with 1 μM of the following dyes: MT3 (FIG. 14A), MT20 (FIG. 14B), MT21 (FIG. 14C), MT22 (FIG. 14D), MT23 (FIG. 14E), MT24 (FIG. 14F), MT25 (FIG. 14G), MT26 (FIG. 14H), MT27 (FIG. 14I), and MT28 (FIG. 14J). Scale bar, 25 μm.
Used at a standard 1 μM concentration, the proposed dyes produce varying staining patterns and intensities. Furthermore, the proposed dyes display fluorescent properties only when labelling cell organelles and can therefore be used directly without washing steps.

CC(C)CCN(CCC(C)C)c1ccc2cc(/C=C/c3cc[n+](CCCS(=O)(=O)[O-])c4ccccc34)ccc2c1 [MT2, 4-(2-[6-(diisopentylamino)-2-naphthalenyl]ethenyl)-1-(3-sulfopropyl)quinolinium inner salt]
staining pattern across phenotypic states (autophagy, ER stress, apoptosis) [1]: different staining patterns | fluorescence intensity relative to MT4 and MT5 [2]: better fluorescence intensity | signal-to-noise ratio relative to MT4 and MT5 [2]: better signal-to-noise ratios | change in fluorescence intensity of the dye after treatment with cell-death inducing agents [2]: increase in fluorescence intensity

Cc1cccc(N(c2cccc(C)c2)c2ccc3cc(/C=C/c4cc[n+](CCCS(=O)(=O)[O-])cc4)ccc3c2)c1 [MT3, 4-(2-[6-(dim-tolylamino)-2-naphthalenyl]ethenyl)-1-(3-sulfopropyl) pyridinium Inner Salt]
staining of cells with condensed nuclei (Hoechst staining) [3]: did not show bright MT3 staining | staining intensity of drug-treated dying cells ([4]; MCF10A, 1 μM MT3, 72 hr 0.312 μM each AZD 5991 and A1331852, normal cells stained with different intensities): very brightly | ability to stain live cells (MCF-7 tumoral cells): able to stain live cells | cell permeability (MCF-7 tumoral cells): cell-permeable | fluorescence intensity relative to MT4 and MT5 [2]: better fluorescence intensity | signal-to-noise ratio relative to MT4 and MT5 [2]: better signal-to-noise ratios | change in fluorescence intensity of the dye after treatment with cell-death inducing agents [2]: increase in fluorescence intensity

Cc1cccc(N(c2cccc(C)c2)c2ccc3cc(/C=C/c4cc[n+](CCCS(=O)(=O)[O-])cc4)c4ccccc4c3c2)c1 [MT20, (E)-3-(4-(2-(3-(di-m-tolylamino)phenanthren-9-yl)vinyl)pyridin-1-ium-1-yl)propane-1-sulfonate]
ability to stain live cells (MCF-7 tumoral cells): able to stain live cells | cell permeability (MCF-7 tumoral cells): cell-permeable

Cc1cccc(N(c2cccc(C)c2)c2ccc3cc(/C=C/c4cc[n+](CCCCS(=O)(=O)[O-])cc4)ccc3c2)c1 [MT21, (E)-4-(4-(2-(6-(di-m-tolylamino)naphthalen-2-yl)vinyl)pyridin-1-ium-1-yl)butane-1-sulfonate]
ability to stain live cells (MCF-7 tumoral cells): able to stain live cells | cell permeability (MCF-7 tumoral cells): cell-permeable

CC(C)=CCN(CC=C(C)C)c1ccc2cc(/C=C/c3cc[n+](CCCS(=O)(=O)[O-])cc3)ccc2c1 [MT22, (E)-3-(4-(2-(6-(bis(3-methylbut-2-en-1-yl)amino)naphthalen-2-yl)vinyl)pyridin-1-ium-1-yl)propane-1-sulfonate]
ability to stain live cells (MCF-7 tumoral cells): able to stain live cells | cell permeability (MCF-7 tumoral cells): cell-permeable

Cc1cccc(N(c2cccc(C)c2)c2ccc3cc(/C=C/c4cc[n+](CCCS(=O)(=O)[O-])cc4F)ccc3c2)c1 [MT23, 4-[(1E)-2-{6-[Bis(3-methylphenyl)amino]naphthalen-2-yl}ethenyl]-3-fluoro-1-(3-sulfopropyl)pyridin-1-ium]
cell permeability (MCF-7 tumoral cells): cell-permeable

Cc1cccc(N(c2cccc(C)c2)c2ccc3cc(/C=C(\F)c4cc[n+](CCCS(=O)(=O)[O-])cc4)ccc3c2)c1 [MT24, 4-[(1Z)-2-{6-[Bis(3-methylphenyl)amino]naphthalen-2-yl}-1-fluoroethenyl]-1-(3-sulfopropyl)pyridin-1-ium]
cell permeability (MCF-7 tumoral cells): cell-permeable

CC(C)=CCN(CC=C(C)C)c1ccc2cc(/C=C/c3cc[n+](CCCS(=O)(=O)[O-])cc3)ccc2c1F [MT25, 4-[(1E)-2-{6-[Bis(3-methylbut-2-en-1-yl)amino]-5-fluoronaphthalen-2-yl}ethenyl]-1-(3-sulfopropyl)pyridin-1-ium]
cell permeability (MCF-7 tumoral cells): cell-permeable

CC(C)=CCN(CC=C(C)C)c1ccc2cc(/C=C/c3cc[n+](CCCS(=O)(=O)[O-])cc3)ccc2c1C(F)(F)F [MT26, 4-[(1E)-2-{6-[Bis(3-methylbut-2-en-1-yl)amino]-5-(trifluoromethyl)naphthalen-2-yl}ethenyl]-1-(3-sulfopropyl)pyridin-1-ium]
cell permeability (MCF-7 tumoral cells): cell-permeable

Cc1cccc(N(c2cccc(C)c2)c2ccc3cc(/C=C/c4cc[n+](CCC[N+](C)(C)C)cc4)ccc3c2)c1 [MT27, 4-[(1E)-2-{6-[Bis(3-methylphenyl)amino]naphthalen-2-yl}ethenyl]-1-[3-(trimethylazaniumyl)propyl]pyridin-1-ium dibromide]
ability to stain live cells (MCF-7 tumoral cells): able to stain live cells | cell permeability (MCF-7 tumoral cells): cell-permeable

Cc1cccc(N(c2cccc(C)c2)c2ccc3cc(/C=C/c4cc[n+](CC(O)C[N+](C)(C)CCO)cc4)ccc3c2)c1 (centres unmarked) [MT28, 4-[(1E)-2-{6-[Bis(3-methylphenyl)amino]naphthalen-2-yl}ethenyl]-1-{2-hydroxy-3-[(2 hydroxyethyl)dimethylazaniumyl]propyl}pyridin-1-ium dibromide]
ability to stain live cells (MCF-7 tumoral cells): able to stain live cells | cell permeability (MCF-7 tumoral cells): cell-permeable

tetramethylrhodamine ethyl ester [TMRE, reference compound]
staining of drug-treated dying cells relative to control cells ([4]; 72 hr 0.312 μM each AZD 5991 and A1331852 (FIGS. 2E and 3)): low staining

— patent US20250179299A1, “DYES FOR MONITORING CELL STATES” (SUNNYBROOK RESEARCH INSTITUTE, priority 2022, published 2025)
